{"source": "patent US12702654B2", "about": "“Compositions and methods for treating homocystinuria and other conditions using polyamines” (THE REGENTS OF THE UNIVERSITY OF COLORADO, priority 2020, dated 2026)", "key": {"MTHFR": {"test_system": "MTHFR", "assay": "Western blotting of hepatic MTHFR expression", "type": "in vivo, mouse", "conditions": "HO mice, 30 g/l in drinking water ad libitum, one week", "procedure": "To investigate the effects of these treatments upon the hepatic regulatory changes in enzyme expression induced by HCU, the human transgenic HO mouse model of HCU was used. In brief, experimental groups consisting of 8 HO mice on a C57BL/6J background and 8 C57BL/6J WT littermate control mice bred in house were used. Mice in both groups were male and aged between 3 and 4 months. Except where otherwise stated, all mice were maintained on standard chow. All diets were administered using a paired-feeding design to ensure isocaloric intake between all experimental groups and body weights were measured once per week. There was no significant difference in body weight between mice in any of the experimental groups. Betaine and taurine were in this example, both administered by dissolving these compounds in drinking water at 30 g/l ([…] 3% w/v) and were supplied ad libitum for one week. Treatment water was replenished twice per week.\nWestern blotting analysis of SAHH, MTHFR and SHMT2 expression was performed in liver samples from HO mice in the presence and absence of betaine or taurine treatment."}, "DHFR": {"test_system": "DHFR", "assay": "Western blotting of hepatic DHFR protein levels", "type": "in vivo, mouse", "conditions": "HO mice, betaine treated; not restored to control levels", "procedure": "In other exemplary experiments, levels of DHFR were assessed using the HO mouse model in untreated and betaine treated mice. […] In addition, level of intensity of DHFR for wild type (WT), treated (HO+betaine) and untreated mice (HO) using the HCU mouse model was examined (FIG. 4B). It was noted that the level of DHFR in betaine treated mice was not restored to control levels and only about a 5-10% improvement was observed (FIG. 4B). (See FIGS. 4A-4B). As noted herein, Western blotting analysis of hepatic DHFR protein levels in WT and HO HCU mice. N=9 per group."}, "[1]": {"test_system": "mouse model of MTR deficient homocystinuria", "assay": "tHcy in mouse model of MTR deficient homocystinuria", "type": "in vivo", "conditions": "betaine supplementation", "text": "In the following exemplary experiments, it was observed that betaine supplementation was limited as observed in a mouse model of MTR deficient homocystinuria. As noted in FIG. 1, homocystinuria can occur due to defects in the Hcy remethylation enzymes MTR or MTHFR. It was observed that supplementation of betaine in certain experiments with a mouse model of MTR deficient homocystinuria lead to reduction of tHcy of approximately 25% having little effect on the condition. This modest decrease in betaine mediated treatment of MTR deficient homocystinuria has also been observed in human patients with this form of homocystinuria."}, "HO HCU mice [2]": {"test_system": "HO HCU mice", "assay": "Hepatic metabolomic analysis / hepatic 5-methylTHF in HO HCU mice", "type": "in vivo, mouse", "text": "As illustrated in one example, see FIG. 2, HCU (HO) induced a significant accumulation of hepatic 5-methyl-THF which by sequestering one carbon units had the potential to decrease the available pool of THF available to the betaine pathway for lowering Hcy. FIG. 2 illustrates an example of hepatic metabolomic analysis of HO and WT controls compared to an HO mouse treated with betaine. Comparative hepatic metabolomic analysis of HO mice and WT controls illustrated about a 10-fold accumulation in the MTHFR product 5-MeTHF. Betaine treatment alone reduced 5-MeTHF by about 15-25%. Data illustrated in FIG. 2 was derived from the livers of 8 (4 male, 4 female) individual HO or WT or HO Betaine mice per group. Betaine was given at 2% w/v in drinking water given ad libitum. P<0.0001 vs WT.\n(§1) A comparative reference data set was generated for these mice by examining plasma levels of tHcy, methionine, cysteine, serine, glycine, dimethylglycine, methylglycine (MG, SAM and SAH). In brief, determination of plasma levels of amino acids relevant to the methionine cycle were determined using methods similar to those described in Stabler et al., Blood. 81 (1993) 3404-3413, incorporated in its entirety herein. Determination of hepatic 5-methylTHF was performed by liquid chromatography-tandem mass spectrometry using methods similar to those described in Witham et al., PLoS One. 8 (2013) e77923, incorporated in its entirety herein. The global metabolomic analysis of methionine and folate cycle related metabolites was carried out by Metabolon, Inc. Briefly, sample preparation was performed utilizing the automated MicroLab STAR® system. Sample preparation was performed using a proprietary series of organic and aqueous extractions to remove the protein fraction while allowing maximum recovery of small molecules. The resulting extract was divided into two fractions: one for analysis by liquid chromatography and one for analysis by gas chromatography. Each sample was then frozen and dried under vacuum. The LC/mass spectrometer portion of the platform was based on a Waters ACQUITY UPLC and a Thermo-Finnigan LTQ mass spectrometer, which consisted of an electrospray ionization source and linear ion-trap mass analyzer. Samples were analyzed on a Thermo-Finnigan Trace DSQ fast-scanning single-quadrupole mass spectrometer using electron impact ionization. Identification of known chemical entities was based on comparison to library entries of authenticated standards. Tissue polyamines putrescine, spermidine and spermine and 5-methylthioadenosine (MTA) were determined by liquid chromatography-tandem mass spectrometry using methods similar to those described in Stevens et al., J Chromatogr A 1217 (2010) 3282-3288, incorporated in its entirety herein."}, "HO HCU mice [3]": {"test_system": "HO HCU mice", "assay": "Hepatic polyamines and MTA by LC-tandem MS in HO HCU mice", "type": "in vivo, mouse", "procedure": "as §1, with “Determination of hepatic 5-methylTHF was performed by liquid chromatography-tandem mass spectrometry using methods similar to those described in Witham et al., PLoS One. 8 (2013) e77923, incorporated in its entirety herein.” left out"}, "[4]": {"conditions": "HO HCU mice, one week of betaine treatment"}}, "data": [{"compound": "C[N+](C)(C)CC(=O)O", "note": "[betaine, N,N,N-trimethylglycine]", "values": [{"measurement": "HCU-mediated induction of hepatic MTHFR expression", "setting": "MTHFR", "result": "completely reversed"}, {"measurement": "improvement of hepatic DHFR level", "setting": "DHFR", "result": "5-10%"}, {"measurement": "reduction of tHcy", "setting": "[1]", "result": "approximately 25%"}, {"measurement": "HCU-induced decrease in hepatic N-acetylcysteine", "setting": "HO HCU mice [2]; [4]", "result": "reversed"}, {"measurement": "HCU-induced decrease in hepatic cysteine", "setting": "HO HCU mice [2]; [4]", "result": "reversed"}, {"measurement": "hepatic N-acetylserine", "setting": "HO HCU mice [2]; [4]", "result": "Neither of these metabolites were significantly altered"}, {"measurement": "hepatic SAH", "setting": "HO HCU mice [2]; [4]", "result": "did not change significantly"}, {"measurement": "hepatic SAM", "setting": "HO HCU mice [2]; [4]", "result": "did not change significantly"}, {"measurement": "hepatic methionine compared to untreated HO mice", "setting": "HO HCU mice [2]; [4]", "result": "no detectable effect"}, {"measurement": "hepatic serine", "setting": "HO HCU mice [2]; [4]", "result": "Neither of these metabolites were significantly altered"}, {"measurement": "increase of hepatic DMG", "setting": "HO HCU mice [2]; [4]", "result": "3 to 4", "unit": "fold"}, {"measurement": "increase of hepatic MG", "setting": "HO HCU mice [2]; [4]", "result": "3 to 4", "unit": "fold"}, {"measurement": "lowering of hepatic N-acetlymethionine compared to untreated HO HCU mice", "setting": "HO HCU mice [2]; [4]", "result": 23, "unit": "%"}, {"measurement": "lowering of hepatic tHcy", "setting": "HO HCU mice [2]; [4]", "result": "approximately 20%"}, {"measurement": "reduction of hepatic 5-MeTHF", "setting": "HO HCU mice [2]; HO mice, betaine 2% w/v in drinking water ad libitum", "result": "15-25%"}, {"measurement": "hepatic levels of putrescine", "setting": "HO HCU mice [3]; HO HCU mice ± betaine vs WT, n=8 per group, data not shown", "result": "no statistical difference"}, {"measurement": "hepatic spermidine", "setting": "HO HCU mice [3]; [4]", "result": "normalized relative to WT mice"}, {"measurement": "hepatic spermine", "setting": "HO HCU mice [3]; [4]", "result": "normalized relative to WT mice"}, {"measurement": "hepatic MTA levels compared to untreated HO HCU mice", "setting": "HO HCU mice [3]; HO HCU mice, one week of betaine treatment, p<0.001", "result": "approximate doubling"}]}]}
